“Also recorded” adds a separate entry of the source.
Key:
various tumor cell lines = details: cited from earlier work
[1] = system: SUM190PT (Nectin-4-positive, solid tumor) xenograft; assay: Tumor growth inhibition in SUM190PT xenograft model; format: in vivo, CB17 SCID mice; details: single i.v. injection
Procedure: For SUM190PT xenografts, 2×10^6 cells were injected into the mammary fat pad of CB17 SCID mice (Janvier). Tumor dimensions and body weights were recorded three times weekly. The tumor volume was calculated according to the formula volume=(width)^2×length×0.5. When the average tumor size reached about 200 mm^3, mice were allocated using a non-random stratification protocol into the treatment groups comprising six mice each. ADCs were intravenously injected once on the day of randomization. The ADCs according to this invention were produced in-house as described in Example 2. Enfortumab vedotin (DAR 4) was commercially available, bought from a pharmacy. ARA-04-MMAE-PABC-AA-C2-RKAA-PABC-MMAE (DAR 4.0) and ARA-04-RKAA-PABC-(MMAE)2 (DAR 3.8) were injected at ADC doses corresponding to 10 μg payload dose per kg mouse weight (10 μg/kg). Enfortumab vedotin (DAR 4) was injected 15 μg payload dose per kg mouse weight (15 μg/kg). Mice in the control group were injected with PBS. All mouse experiments were performed in accordance with Swiss guidelines and were approved by the Veterinarian Office of Zurich, Switzerland.

RNA-polymerase II = RNA-polymerase II (Homo sapiens, UniProt P24928); details: read-out: KD of the complex between amanitin and RNA-polymerase II; cited from earlier work
[2] = 10 μg/kg payload dose, six mice per group

CC[C@H](C)[C@H](NC(=O)[C@H]1CCCCN1C)C(=O)N(COC(=O)CC(C)C)[C@H](C[C@@H](OC(C)=O)c1nc(C(=O)N[C@@H](Cc2ccc(O)cc2)C[C@H](C)C(=O)O)cs1)C(C)C [Tubulysin A]
IC50, cytostatic effects (various tumor cell lines): picomolar range

ARA-04-MMAE-PABC-AA-C2-RKAA-PABC-MMAE: anti-Nectin-4 ADC (DAR 4.0), same antibody and payload as Enfortumab vedotin, payloads at N- and C-terminal end of peptide linker
anti-tumor response (in words) [1, 2]: active in vivo; also recorded: superior efficacy providing survival advantage
mice with complete long-lasting responses [1, 2]: 4/6

ARA-04-RKAA-PABC-(MMAE)2: anti-Nectin-4 ADC (DAR 3.8), same antibody and payload as Enfortumab vedotin, payloads only at C-terminal end of peptide linker
anti-tumor response (in words) [1, 2]: tumor control for approximately 20 days in 6/6 mice followed by re-growth of tumors; also recorded: active in vivo

Enfortumab vedotin [reference compound]
animals with marked regrowth after day 40 ([1]; 15 μg/kg payload dose): 6/6
anti-tumor response (in words) ([1]; 15 μg/kg payload dose, six mice per group): transient tumor regression with no tumor-free individuals at 20 days after treatment

amanitin
Kd (RNA-polymerase II): 3 nM
